# Literature values in US20260108532A1, “COMPOSITION FOR PREVENTING HEART DISEASES CAUSED BY PULMONARY HYPERTENSION AND TREATING HEART, AND FUNCTIONAL FORMULATION COMPRISING SAME” (CARESIDE CO., LTD., priority 2023, published 2026).
# How the values were obtained:
# [1] = system: dogs with subclinical (asymptomatic) CMVI; details: at 35 days of administration, compared to placebo administered group
# [2] = potassium-sparing diuretic such as spironolactone
# [3] = system: dogs with subclinical myxomatous mitral valve disease (MMVD); details: compared with placebo-administered group
# [4] = dogs; long-term administration
smiles,measurement,setting,value
"COc1ccc(-c2nc3ccc(C4=NNC(=O)CC4C)cc3[nH]2)cc1 (stereo not shown) [pimobendan, Pimobendan]",LVIDd and LA/Ao on imaging diagnosis,[1],decreased
"CC(=O)S[C@@H]1CC2=CC(=O)CC[C@]2(C)[C@H]2CC[C@@]3(C)[C@@H](CC[C@@]34CCC(=O)O4)[C@H]12 [spironolactone, Spironolactone]",diuretic effect as share of the efficacy of the loop diuretic,[2],~10%
same,increase in heart size and cardiac biomarker concentration on cardiac ultrasound,[3],much smaller
"Cc1cccc(Nc2ccncc2S(=O)(=O)NC(=O)NC(C)C)c1 [torsemide, Torsemide]",ceiling effect,[4],almost no ceiling effect
